What was measured:
[1] = tested on: Salmonidae; experiment: Effect on Salmon testes DNA stabilization assessed as thermal denaturation at 100 uM; type: functional
[2] = tested on: Salmonidae; experiment: Binding affinity to Salmon testes DNA

| SMILES | ΔTm [1] | Ka [2] |
| --- | --- | --- |
| O=C(NCCO)c1cccc2c1-c1ccccc1C2=O | 1.9 °C | – |
| O=C(NCCCCO)c1cccc2c1-c1ccccc1C2=O | -0.8 °C | – |
| CN(C)CCCNC(=O)c1cccc2c1-c1ccccc1C2=O | 2.1 °C | 3.1 10^4/M |
| CCN(CC)CCNC(=O)c1cccc2c1-c1ccccc1C2=O | 2.1 °C | 7.8 10^4/M |
| CN(C)CCNC(=O)c1cccc2c1-c1ccccc1C2=O | 0.2 °C | 3.3 10^3/M |
| O=C(NCCCO)c1cccc2c1-c1ccccc1C2=O | 3.1 °C | 8.4 10^3/M |
| O=C(NCCOCCO)c1cccc2c1-c1ccccc1C2=O | 0.2 °C | – |
| CC(O)CNC(=O)c1cccc2c1-c1ccccc1C2=O (stereo unspecified) | 2.1 °C | – |
| O=C(NCCCN1CCOCC1)c1cccc2c1-c1ccccc1C2=O | -0.8 °C | 2.3 10^4/M |
| O=C(NCCN1CCOCC1)c1cccc2c1-c1ccccc1C2=O | 1.2 °C | 1.6 10^5/M |

Reference: ChEMBL document CHEMBL1147214, “Tetraplex DNA specific ligands based on the fluorenone-carboxamide scaffold” (Bioorg Med Chem Lett, 2007)
